Laboratory results reported in article PMC8038501, “Bioactivity-Guided Isolation of Phytochemicals from Vaccinium dunalianum Wight and Their Antioxidant and Enzyme Inhibitory Activities” (Molecules, 2021).
Marks after values point to notes of the source that are not given here.

Key:
[1] = cited from earlier work
[2] = DPPH free-radical scavenging assay; conditions: for Antioxidant Activity DPPH: mean ± SD, three replicates
Protocol: The DPPH free radical scavenging activity was carried out by the method previously described. Briefly, 2 mL of DPPH solution (0.1 mmol/L) was mixed with 0.5 mL of sample solutions or Trolox solution (100 μg/mL in methanol). Then, the mixture was incubated for 30 min in the dark at room temperature. Absorbance of the mixture was measured at 517 nm using a SpectraMax M5 microplate reader. DPPH radical scavenging activity of each extract was expressed as nmol Trolox equivalent (TE) per mg of extract (nmol TE/mg extract).

α-glucosidase = α-glucosidase (Saccharomyces cerevisiae, UniProt P53341); test: α-glucosidase inhibitory assay (PNPG substrate); format: biochemical
Chain of α-glucosidase (P53341 whole entry): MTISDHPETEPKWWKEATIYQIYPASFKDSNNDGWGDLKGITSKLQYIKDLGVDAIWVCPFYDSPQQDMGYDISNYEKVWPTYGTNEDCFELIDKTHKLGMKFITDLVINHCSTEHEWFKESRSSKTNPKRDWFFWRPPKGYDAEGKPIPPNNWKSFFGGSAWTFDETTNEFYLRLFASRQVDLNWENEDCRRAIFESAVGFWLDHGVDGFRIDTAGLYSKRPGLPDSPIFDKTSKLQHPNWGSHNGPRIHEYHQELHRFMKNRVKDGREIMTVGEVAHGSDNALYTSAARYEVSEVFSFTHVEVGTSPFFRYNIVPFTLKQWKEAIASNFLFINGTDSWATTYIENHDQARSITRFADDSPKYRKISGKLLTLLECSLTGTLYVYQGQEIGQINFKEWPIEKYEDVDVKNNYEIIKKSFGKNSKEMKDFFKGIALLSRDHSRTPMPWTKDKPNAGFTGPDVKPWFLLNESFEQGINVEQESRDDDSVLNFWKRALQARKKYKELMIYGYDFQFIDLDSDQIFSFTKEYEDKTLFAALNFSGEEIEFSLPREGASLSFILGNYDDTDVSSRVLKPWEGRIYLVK
Protocol: The α-glucosidase inhibitory assay was performed as previously described with slight modifications. A 50 µL sample (20, 50, 100, 200, 400, 600 µg/mL) solution was added to the mixture of the α-glucosidase solution, phosphate buffer (100 µL, pH 6.8), and 50 µL of 10 mM PNPG in a 96-well microplate. Subsequently, the reaction mixture was incubated for 15 min at 37 °C. Then, sodium carbonate (50 µL, 0.2 M) was added to terminate the reaction. A blank was prepared for each sample without enzyme solution to correct the background absorbance (control). The absorbance (A) of the reaction mixture was measured at 405 nm by using a SpectraMax M5 microplate reader (Molecular Devices, Sunnyvale, CA, USA). The inhibitory percentage was determined as follows:Inhibition (%) = [(Acontrol − Asample)/Acontrol] × 100(1)

[3] = target: T1, porcine pancreatic lipase (Sus scrofa, UniProt P00591); test: pancreatic lipase inhibitory assay (p-nitrophenyl laurate substrate); format: biochemical; conditions: mean ± SD, three replicates; read-out: Enzyme Inhibition IC50 Pancreatic Lipase (converted)
T1 construct: purchased Sigma-Aldrich (Shanghai, China)
T1 sequence (P00591 1-450): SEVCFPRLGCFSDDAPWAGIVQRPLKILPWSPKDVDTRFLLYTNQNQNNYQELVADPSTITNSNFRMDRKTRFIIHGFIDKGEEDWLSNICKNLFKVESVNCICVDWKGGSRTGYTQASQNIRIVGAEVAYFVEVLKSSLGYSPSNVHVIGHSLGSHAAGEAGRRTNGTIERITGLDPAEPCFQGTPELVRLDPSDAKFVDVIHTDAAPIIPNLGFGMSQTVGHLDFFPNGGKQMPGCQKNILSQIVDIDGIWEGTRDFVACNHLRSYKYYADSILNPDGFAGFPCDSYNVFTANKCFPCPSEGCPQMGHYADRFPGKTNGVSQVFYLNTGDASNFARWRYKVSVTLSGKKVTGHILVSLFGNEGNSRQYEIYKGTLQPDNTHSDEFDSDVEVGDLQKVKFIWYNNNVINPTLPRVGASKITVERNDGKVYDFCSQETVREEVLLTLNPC
Protocol: The pancreatic lipase inhibitory assay was conducted as previously described with some modifications. First, the porcine pancreatic lipase solution was centrifuged to collect the supernatant enzyme at 4000 g for 5 min. The substrate solution was prepared with p-nitrophenyl laurate dissolved in 5 mM sodium acetate (1:100 m/v) and Triton X-100 (1:100 v/v). The substrate solution was placed in boiling water for 2 min to fully dissolve, and then cooled down to room temperature for the enzymatic assay. The sample was dissolved in DMSO (<5% in the final reaction reagents) and diluted with 100 mM Tris-buffer (pH 8.2). Samples of 50, 100, 200, 400, 600, and 800 µg/mL were prepared. Orlistat was used as a positive control. In the enzymatic assay, the test samples (100 µL) were mixed with Tris buffer (400 µL), substrate solution (350 µL), and pancreatic lipase (150 µL). The mixture was then incubated at 37 °C for 2 h and centrifugated at 4000 g for 3 min. The absorbance of the reaction mixture was measured at 400 nm by using a SpectraMax M5 microplate reader. The percent inhibition of pancreatic lipase activity was calculated by Equation (1).

[4] = Ferric reducing/antioxidant power (FRAP) assay; conditions: for Antioxidant Activity FRAP: mean ± SD, three replicates
Protocol: The FRAP assay was conducted according to the procedure reported with slight modifications. The FRAP reagent was freshly prepared with 300 mM acetate buffer (pH 3.6), 10 mM TPTZ (2,4,6-tripyridyl-s-triazine), and 20 mM FeCl3-6H2O (10:1:1, v/v)]. A 0.5 mL of each sample (100 μg/mL) was mixed with 4.5 mL freshly prepared FRAP reagent. Then, the reaction mixture was incubated at 37 °C in the dark for 10 min. The absorbance of the mixture was recorded at 593 nm against a blank that was prepared using distilled water. Trolox was used as a control. The FRAP values were expressed as nmol Trolox equivalent (TE) per mg of extract (nmol TE/mg extract).

[5] = ABTS radical scavenging assay; conditions: for Antioxidant Activity ABTS: mean ± SD, three replicates
Protocol: The ABTS assay was performed according to the procedure described earlier. Briefly, 7 mM ABTS was added to 2.5 mM […] and the mixture was allowed to stand in the dark at room temperature for 16 h to obtain the ABTS radical solution. The ABTS solution was diluted with methanol with an absorbance of 0.70 ± 0.02 at 734 nm. After adding the 25 μL extract (100 μg/mL in methanol) to 200 μL ABTS solution, the absorbance was measured after 6 min at 734 nm by using a SpectraMax M5 microplate reader. Results were expressed as nmol Trolox equivalent (TE) per mg of extract (nmol TE/mg extract).

ɑ-glucosidase = test system: ɑ-glucosidase; design: method as in PMID 28832228; conditions: cited from earlier work

Row | SMILES | effect on antioxidant activity (reported) [1] | Antioxidant Activity DPPH [2] | α-glucosidase inhibition (in words) (α-glucosidase) | IC50 [3] | Antioxidant Activity FRAP [4] | Antioxidant Activity ABTS [5] | ɑ-glucosidase inhibitory activities (reported) (ɑ-glucosidase) | FRAP ([4]; unit in section 2.5) | ABTS ([5]; unit in section 2.5) | DPPH ([2]; unit in section 2.5)
1 | O=c1c(OC2O[C@H](CO)[C@@H](O)[C@@H]2O)c(-c2ccc(O)c(O)c2)oc2cc(O)cc(O)c12 (stereo in doubt) [Compound 5, Quercetin-3-O-arabinofuranoside] | positive effect on antioxidant activity | 0.81 ± 0.17 ^h nmol Trolox equivalent/mg extract | relatively weak inhibitory activity | 759 µM | – | – | – | – | – | –
2 | OC[C@H]1O[C@@H](Oc2ccc(O)cc2)[C@H](O)[C@@H](O)[C@@H]1O [Compound 1, Arbutin] | – | 0.45 ± 0.02 ^e nmol Trolox equivalent/mg extract | relatively weak inhibitory activity | 1290 µM | 0.76 ± 0.01 ^d nmol Trolox equivalent/mg extract | 8.38 ± 3.74 ^efg nmol Trolox equivalent/mg extract | – | – | – | –
3 | O=C(/C=C/c1ccc(O)c(O)c1)OC[C@H]1O[C@@H](O)[C@H](O)[C@@H](O)[C@@H]1O [Compound 2, 6-O-E-Caffeoyl-D-glucopyranose] | – | 1.05 ± 0.11 ^h nmol Trolox equivalent/mg extract | – | 303 µM | 0.84 ± 0.01 ^e,f nmol Trolox equivalent/mg extract | 15.93 ± 1.65 ^ij nmol Trolox equivalent/mg extract | – | – | – | –
4 | O=C(O)/C=C/c1ccc(O)c(O)c1 [Compound 3, Caffeic acid] | positive effect on antioxidant activity | 0.39 ± 0.05 ^de nmol Trolox equivalent/mg extract | – | 1310 µM | 0.85 ± 0.01 ^ef nmol Trolox equivalent/mg extract | 3.86 ± 0.48 ^b nmol Trolox equivalent/mg extract | – | – | – | –
5 | COC(=O)/C=C/c1ccc(O)c(O)c1 [Compound 4, Caffeic acid methyl ester] | – | 0.37 ± 0.01^d nmol Trolox equivalent/mg extract | – | 1380 µM | 0.82 ± 0.01 ^e nmol Trolox equivalent/mg extract | 3.10 ± 1.07 ^b nmol Trolox equivalent/mg extract | good ɑ-glucosidase inhibitory activities | – | – | –
6 | CCOC(=O)/C=C/c1ccc(O)c(O)c1 [Compound 6, Caffeic acid ethyl ester] | – | 0.42 ± 0.03 ^e nmol Trolox equivalent/mg extract | relatively weak inhibitory activity | 1240 µM | 0.76 ± 0.01 ^d nmol Trolox equivalent/mg extract | 4.16 ± 0.25 ^b nmol Trolox equivalent/mg extract | good ɑ-glucosidase inhibitory activities | – | – | –
7 | O=C(/C=C/c1ccc(O)c(O)c1)OC[C@H]1O[C@@H](Oc2ccc(O)cc2)[C@H](O)[C@@H](O)[C@@H]1O [Compound 7, 6′-O-Caffeoylarbutin] | – | 1.21 ± 0.43 ^c nmol Trolox equivalent/mg extract | – | 225 µM | 0.87 ± 0.01 ^f nmol Trolox equivalent/mg extract | 16.96 ± 0.95 ^j nmol Trolox equivalent/mg extract | – | 0.87 ± 0.01 nmol TE/g extract | 16.96 ± 0.95 nmol TE/g extract | 1.21 ± 0.43 nmol TE/g extract
8 | O=C(/C=C/c1ccc(O)cc1)OC[C@H]1O[C@@H](Oc2ccc(O)cc2)[C@H](O)[C@@H](O)[C@@H]1O [Compound 8, Robustaside A] | – | 0.41 ± 0.06 ^e nmol Trolox equivalent/mg extract | relatively weak inhibitory activity | 741 µM | 0.49 ± 0.01 ^b nmol Trolox equivalent/mg extract | 4.71 ± 0.23 ^c nmol Trolox equivalent/mg extract | – | – | – | –
9 | O=c1c(O[C@@H]2O[C@H](CO)[C@@H](O)[C@H](O)[C@H]2O)c(-c2ccc(O)cc2)oc2cc(O)cc(O)c12 [Compound 9, Kaempferol-3-O-β-D-glucopyranoside] | positive effect on antioxidant activity | 0.35 ± 0.01 ^cd nmol Trolox equivalent/mg extract | relatively weak inhibitory activity | 778 µM | – | 6.38 ± 0.34 ^e nmol Trolox equivalent/mg extract | – | – | – | –
10 | O=C(O)c1ccc(O)cc1 [Compound 10, p-Hydroxybenzoic acid] | – | 1.12 ± 0.23 ^h nmol Trolox equivalent/mg extract | relatively weak inhibitory activity | 2220 µM | 0.87 ± 0.01 ^f nmol Trolox equivalent/mg extract | – | – | – | – | –
